This note sets out measurements from patent publication US8883782B2, “Spiro-tetracyclic ring compounds as beta-secretase modulators and methods of use” (Amgen Inc., priority 2010, dated 2014).

For assay [1], the target named is Beta Secretase enzyme (BACE) (Homo sapiens, UniProt P56817). Description: In vitro enzymatic BACE FRET (fluorescence resonance energy transfer) assay. The assay is classed as biochemical. The following applies: average IC50, enzyme assay; read-out: BACE 1 FRET assay. Put shortly: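 Run in 0.05 M acetate pH 4.2 with 10% DMSO final and 100 uM genapol; started by adding 50 nM FRET peptide substrate (fluorophore and quencher flanking the cleavage site), incubated one hour, then stopped with Tris to neutral pH before reading fluorescence.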
Chain of Beta Secretase enzyme (BACE) (P56817 46-501, species assumed): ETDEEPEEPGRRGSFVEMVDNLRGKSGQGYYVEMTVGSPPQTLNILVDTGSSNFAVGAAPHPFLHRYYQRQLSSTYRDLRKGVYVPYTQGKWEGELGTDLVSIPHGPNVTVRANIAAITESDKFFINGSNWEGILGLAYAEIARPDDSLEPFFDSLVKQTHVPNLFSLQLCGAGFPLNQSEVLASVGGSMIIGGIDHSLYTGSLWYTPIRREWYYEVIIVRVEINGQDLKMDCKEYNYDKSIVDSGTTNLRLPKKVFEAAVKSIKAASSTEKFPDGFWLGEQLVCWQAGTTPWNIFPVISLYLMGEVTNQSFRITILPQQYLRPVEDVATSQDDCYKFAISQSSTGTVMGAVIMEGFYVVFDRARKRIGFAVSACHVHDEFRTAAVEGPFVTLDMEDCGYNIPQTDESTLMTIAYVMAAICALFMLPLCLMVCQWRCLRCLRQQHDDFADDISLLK

Assay [2] concerns Aβ40 in conditioned medium of cells stably expressing Amyloid Precursor Protein (APP). In words: In vitro BACE cell-based assay (Aβ40 in conditioned medium, sandwich ELISA). The following applies: read-out: HEK cell assay. Put shortly: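 Secreted Aβ40 is captured with pAb40 and detected with biotinylated 6E10, read by europium time-resolved fluorescence. IC50 comes from percent inhibition versus concentration.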
In general terms: In an ELISA, binding on a coated surface is turned into a signal by an enzyme label.

[3] abbreviates: Homo sapiens, HEK293, average IC50.

Where two headings read alike, the source gives them in different places. Some results are limits rather than exact numbers.

Take `NC1=N[C@@]2(CO1)c1cc(Oc3cc(Cl)ccn3)ccc1Oc1c(F)cc(N3CCOCC3)cc12` [Example 1062, (4S)-7′-((4-chloro-2-pyridinyl)oxy)-4′-fluoro-2′-(4-morpholinyl)spiro[1,3-oxazole-4,9′-xanthen]-2-amine]: the IC50 in assay [1] came out at 0.0223 µM; in assay [2] (setting [3]) it was 0.374 µM.
`Cc1cccc(Oc2ccc3c(c2)[C@@]2(COC(N)=N2)c2cc(C4=CCOCC4)cc(F)c2O3)n1` [Example 1063, (4S)-2′-(3,6-dihydro-2H-pyran-4-yl)-4′-fluoro-7′-((6-methyl-2-pyridinyl)oxy)spiro[1,3-oxazole-4,9′-xanthen]-2-amine]: the IC50 in assay [1] was determined as 0.0337 µM; in assay [2] (setting [3]), 0.751 µM.
Consider `Cc1ccc(Oc2ccc3c(c2)[C@@]2(COC(N)=N2)c2cc(C4=CCOCC4)cc(F)c2O3)nc1` [Example 1064, (4S)-2′-(3,6-dihydro-2H-pyran-4-yl)-4′-fluoro-7′-((5-methyl-2-pyridinyl)oxy)spiro[1,3-oxazole-4,9′-xanthen]-2-amine], for which the IC50 in assay [1] stood at 0.0211 µM; in assay [2] (setting [3]), 0.442 µM.
Consider `Cc1ccnc(Oc2ccc3c(c2)[C@@]2(COC(N)=N2)c2cc(C4=CCOCC4)cc(F)c2O3)c1` [Example 1065, (4S)-2′-(3,6-dihydro-2H-pyran-4-yl)-4′-fluoro-7′-((4-methyl-2-pyridinyl)oxy)spiro[1,3-oxazole-4,9′-xanthen]-2-amine], for which the IC50 in assay [1] amounted to 0.0377 µM; in assay [2] (setting [3]), 1.48 µM.
In the case of `NC1=N[C@@]2(CO1)c1cc(Oc3ccc(Cl)cn3)ccc1Oc1c(F)cc(C3=CCOCC3)cc12` [Example 1066, (4S)-7′-((5-chloro-2-pyridinyl)oxy)-2′-(3,6-dihydro-2H-pyran-4-yl)-4′-fluorospiro[1,3-oxazole-4,9′-xanthen]-2-amine], the IC50 came out at 0.0526 µM in assay [1] and 1.97 µM in assay [2] (setting [3]).
The matching figures for `NC1=N[C@@]2(CS1)c1cc(-c3cccnc3F)ccc1Oc1c(F)cc(-c3ccncc3)cc12` [Example 1068, (4S)-4′-fluoro-7′-(2-fluoro-3-pyridinyl)-2′-(4-pyridinyl)spiro[1,3-thiazole-4,9′-xanthen]-2-amine]: 0.0023 µM and 0.062 µM.
With `NC1=N[C@@]2(CS1)c1cc(-c3cccnc3F)ccc1Oc1c(F)cc(N3CCOCC3)cc12` [Example 1069, (4S)-4′-fluoro-7′-(2-fluoro-3-pyridinyl)-2′-(4-morpholinyl)spiro[1,3-thiazole-4,9′-xanthen]-2-amine], the figures for the IC50 in assay [1] and in assay [2] (setting [3]) were 0.0006 µM and 0.01 µM, respectively.
The matching figures for `COc1cc(F)c2c(c1)[C@]1(COC(N)=N1)c1cc(-c3cncc(C(C)(F)F)c3)ccc1O2` [Example 1070, (4S)-7′-(5-(1,1-difluoroethyl)-3-pyridinyl)-4′-fluoro-2′-methoxyspiro[1,3-oxazole-4,9′-xanthen]-2-amine]: 0.345 µM and 0.367 µM.
Regarding `NC1=N[C@@]2(CS1)c1cc(-c3cccnc3F)ccc1Oc1c(F)cc(-c3ccnc(F)c3)cc12` [Example 1071, (4S)-4′-fluoro-7′-(2-fluoro-3-pyridinyl)-2′-(2-fluoro-4-pyridinyl)spiro[1,3-thiazole-4,9′-xanthen]-2-amine], the IC50 in assay [1] was found to be 0.0003 µM; in assay [2] (setting [3]) it was 0.044 µM.
As to `Cc1cc(-c2cc(F)c3c(c2)[C@]2(CSC(N)=N2)c2cc(-c4cccnc4F)ccc2O3)ccn1` [Example 1072, (4S)-4′-fluoro-7′-(2-fluoro-3-pyridinyl)-2′-(2-methyl-4-pyridinyl)spiro[1,3-thiazole-4,9′-xanthen]-2-amine], the IC50 turned out to be 0.0033 µM in assay [1] and 0.029 µM in assay [2] (setting [3]).
Take `COc1cc(F)c2c(c1)[C@]1(COC(N)=N1)c1cc(-c3cncc(C(F)(F)F)c3)ccc1O2` [Example 1073, (4S)-4′-fluoro-2′-methoxy-7′-(5-(trifluoromethyl)-3-pyridinyl)spiro[1,3-oxazole-4,9′-xanthen]-2-amine]: the results for the IC50 in assay [1] and in assay [2] (setting [3]) were 0.0614 µM and 0.194 µM, respectively.
The corresponding values for `COc1cc(F)c2c(c1)[C@]1(COC(N)=N1)c1cc(-c3cncc(CC#N)c3)ccc1O2` [Example 1074, (5-((4S)-2-amino-5′-fluoro-7′-methoxyspiro[1,3-oxazole-4,9′-xanthen]-2′-yl)-3-pyridinyl)acetonitrile] are 0.131 µM and 0.324 µM.
Turning to `NC1=N[C@@]2(CS1)c1cc(-c3cccnc3F)ccc1Oc1c(F)cc(N3CC[C@@H](F)C3)cc12` [Example 1075, (4S)-4′-fluoro-7′-(2-fluoro-3-pyridinyl)-2′-((3R)-3-fluoro-1-pyrrolidinyl)spiro[1,3-thiazole-4,9′-xanthen]-2-amine], the figures for the IC50 in assay [1] and in assay [2] (setting [3]) were 0.0015 µM and 0.015 µM, respectively.
The corresponding values for `NC1=N[C@@]2(CS1)c1cc(-c3cccnc3F)ccc1Oc1c(F)cc(N3CC4CC3CO4)cc12` (stereo partly drawn) [Example 1078, (4S)-4′-fluoro-7′-(2-fluoro-3-pyridinyl)-2′-(2-oxa-5-azabicyclo[2.2.1]hept-5-yl)spiro[1,3-thiazole-4,9′-xanthen]-2-amine] are 0.0004 µM and 0.005 µM.
Turning to `CC(C)(CF)COc1cc(F)c2c(c1)[C@]1(CSC(N)=N1)c1cc(-c3cccnc3F)ccc1O2` [Example 1081, (4S)-4′-fluoro-2′-(3-fluoro-2,2-dimethylpropoxy)-7′-(2-fluoro-3-pyridinyl)spiro[1,3-thiazole-4,9′-xanthen]-2-amine], the results for the IC50 in assay [1] and in assay [2] (setting [3]) were 0.214 µM and 0.899 µM, respectively.
In the case of `C[C@H]1COCCN1c1cc(F)c2c(c1)[C@]1(CSC(N)=N1)c1cc(-c3cccnc3F)ccc1O2` [Example 1082, (4S)-4′-fluoro-7′-(2-fluoro-3-pyridinyl)-2′-((3S)-3-methyl-4-morpholinyl)spiro[1,3-thiazole-4,9′-xanthen]-2-amine], the IC50 in assay [1] worked out at 0.0003 µM; in assay [2] (setting [3]), 0.004 µM.
Consider `NC1=N[C@@]2(CS1)c1cc(-c3cccnc3F)ccc1Oc1c(F)cc(N3C[C@H]4C[C@@H]3CO4)cc12` [Example 1085, (4S)-4′-fluoro-7′-(2-fluoro-3-pyridinyl)-2′-((1R,4R)-2-oxa-5-azabicyclo[2.2.1]hept-5-yl)spiro[1,3-thiazole-4,9′-xanthen]-2-amine], for which the IC50 in assay [1] amounted to 0.0003 µM; in assay [2] (setting [3]) it was 0.023 µM.
For the molecule `Cc1ccc(-c2cc(F)c3c(c2)[C@]2(CSC(N)=N2)c2cc(-c4cccnc4F)ccc2O3)cn1` [Example 1086, (4S)-4′-fluoro-7′-(2-fluoro-3-pyridinyl)-2′-(6-methyl-3-pyridinyl)spiro[1,3-thiazole-4,9′-xanthen]-2-amine], the IC50 in assay [1] was found to be 0.067 µM; in assay [2] (setting [3]), 1.37 µM.
With `NC1=N[C@@]2(CO1)c1cc(-c3cccnc3F)ccc1Oc1c(F)cc(N3CC4(COC4)C3)cc12` [Example 1087, (4S)-4′-fluoro-7′-(2-fluoro-3-pyridinyl)-2′-(2-oxa-6-azaspiro[3.3]hept-6-yl)spiro[1,3-oxazole-4,9′-xanthen]-2-amine], the IC50 in assay [1] and in assay [2] (setting [3]) was 0.002 µM each time.
Turning to `COCC1SC(N)=N[C@@]12c1cc(-c3cccnc3F)ccc1Oc1cnc(Cl)cc12` (stereo partly drawn) [Example 1088, (5R)-3-chloro-7-(2-fluoro-3-pyridinyl)-5′-(methoxymethyl)spiro[chromeno[2,3-c]pyridine-5,4′-[1,3]thiazol]-2′-amine, (5S)-3-chloro-7-(2-fluoro-3-pyridinyl)-5′-(methoxymethyl)spiro[chromeno[2,3-c]pyridine-5,4′-[1,3]thiazol]-2′-amine], the IC50 turned out to be 0.115 µM in assay [1] and 3.06 µM in assay [2].
Consider `COCC1SC(N)=NC12c1cc(-c3cccnc3F)ccc1Oc1c(F)cc(OC)cc12` [Example 1089, (4S/R,5S)-4′-fluoro-7′-(2-fluoropyridin-3-yl)-2′-methoxy-5-(methoxymethyl)-5H-spiro[thiazole-4,9′-xanthen]-2-amine], for which the IC50 in assay [1] is 0.0033 µM; in assay [2] (average IC50) it was 0.923 µM.
In the case of `COCC1SC(N)=N[C@@]12c1cc(-c3cccnc3F)ccc1Oc1c(F)cc(OC)cc12` (stereo partly drawn) [Example 1090, (4R)-4′-fluoro-7′-(2-fluoro-3-pyridinyl)-2′-methoxy-5-(methoxymethyl)spiro[1,3-thiazole-4,9′-xanthen]-2-amine], the IC50 in assay [1] was 2.4 µM; in assay [2] (setting [3]), over 10 µM.
As to `COCC1SC(N)=N[C@]12c1cc(-c3cccnc3F)ccc1Oc1c(F)cc(OC)cc12` (stereo partly drawn) [Example 1091, (4S)-4′-fluoro-7′-(2-fluoro-3-pyridinyl)-2′-methoxy-5-(methoxymethyl)spiro[1,3-thiazole-4,9′-xanthen]-2-amine], the figures for the IC50 in assay [1] and in assay [2] (setting [3]) were 5.07 µM and over 10 µM, respectively.
Turning to `COC[C@H]1SC(N)=NC12c1cc(-c3cccnc3F)ccc1Oc1c(F)cc(OC)cc12` (stereo partly drawn) [Example 1092, (4S/R,5S)-4′-fluoro-7′-(2-fluoropyridin-3-yl)-2′-methoxy-5-(methoxymethyl)-5H-spiro[thiazole-4,9′-xanthen]-2-amine], the IC50 worked out at 0.0057 µM in assay [1] and 0.498 µM in assay [2] (average IC50, HEK cells).
In the case of `COCC1SC(N)=N[C@@]12c1cc(-c3cccnc3F)ccc1Oc1cnc(-c3ccnc(F)c3)cc12` (stereo partly drawn) [Example 1094, (5R)-7-(2-fluoro-3-pyridinyl)-3-(2-fluoro-4-pyridinyl)-5′-(methoxymethyl)spiro[chromeno[2,3-c]pyridine-5,4′-[1,3]thiazol]-2′-amine], the IC50 in assay [1] worked out at 0.0043 µM; in assay [2] (Homo sapiens, HEK293, average IC50, HEK cells) it was 0.128 µM.
Take `CC1(C#Cc2cnc3c(c2)[C@@]2(COC(N)=N2)c2cc(-c4cccnc4F)c(F)cc2O3)COC1` [compound 108]: the IC50 stood at 0.002 µM in assay [1] and 0.0036 µM in assay [2] (setting [3]).
With “(4R)-4′-fluoro-2′-methoxy-7′-(5-pyrimidinyl)spiro[1,3-thiazole-4,9′-xanthen]-2-amine [Example 215]”, the values for the IC50 in assay [1] and in assay [2] (average IC50) were 0.0081 µM and 0.113 µM, respectively.
